Data taken from US12517098B2, “Monitoring polysorbate hydrolysis in pharmaceutical formulations using an ultrasensitive extraction-free fatty acid quantitation method” (Regeneron Pharmaceuticals, Inc., priority 2021, dated 2026).

Columns and labels:
[1] = Solubility of free fatty acid in the formulation; format: physicochemical; conditions: mAb formulation, aqueous with cosolvent or surfactant or cyclodextrin
[2] = Loss of heavy-isotope-labeled fatty acids during incubation (adsorption to container); format: physicochemical; conditions: 1% PS20, 200 mg/mL mAb3, 37° C., plastic tubes
Method: The hydrolysis of PS20 in mAb formulations used for the fatty acid quantitation method of the invention was optimized by mixing 60 μL of 200 mg/mL mAb-3 (10 mM histidine, pH 6.3) with 0.62 μL, 1.26 μL, 3.2 μL and 6.8 μL 10% PS20 with or without 1.5 μL ISTD mixture (200 μg/mL lauric-d23 acid, 40 μg/mL myristic-d27 acid, and oleic acid-^13C18 in 20% methanol) in Eppendorf plastic tubes (category number 022431064) or Waters glass vials (SKU 600000668CV), […] Incubation samples were analyzed by LC multiple reaction monitoring (LC-MRM) after extraction (Table 2). Incubation conditions were optimized for measuring fatty acid content using LC-MRM after extraction. Fatty acids were extracted from mAb solution using an extraction protocol developed by Honemann et al. with an optimized precipitation buffer and extraction time (Honemann et al.). […] Subsequently, 40 μL of the supernatant was transferred to a 96-well plate, and 5 μL was subjected to LC-MRM for quantitation. […] Elution was performed at 0.4 mL/minute, and peaks at 1-7 minutes were analyzed using an ESI source operating in negative mode, with a gas temperature of 200° C., gas flow of 12 L/minute, nebulizer gas pressure of 20 psi, sheath gas temperature of 300° C., sheath gas flow of 11 L/min, capillary voltage of −3000 V, and nozzle voltage of 500 V. Lauric acid and lauric-d23 acid were monitored at 199.1/199.1 and 222.3/222.3; myristic acid and myristic-d27 acid were monitored at 227.2/227.2 and 254.4/254.4; palmitic acid, oleic acid, oleic acid-^13C18, stearic acid, and linoleic acid were monitored at 255.2/255.2, 281.2/281.2, 299.2/299.2, 283.2/283.2, and 279.2/279.2 with CE 5, respectively. […] Peak integration was performed by Skyline, and fatty acid concentrations were calculated based on a calibration curve created from a spiked-in fatty acid concentration plot against To investigate why fatty acids were lost during incubation, isotope-labeled fatty acids were employed. […]

fatty acid lost after 6-day incubation [2] | Structure (SMILES) | solubility [1]
15% | CCCCCCCC/C=C\CCCCCCCC(=O)O [oleic acid] | 
34% | CCCCCCCCCCCCCC(=O)O [myristic acid] | 

Structure (SMILES) | fatty acid lost after 6-day incubation [2] | solubility [1]
CCCCCCCCCCCC(=O)O [lauric acid] | 50% | > 20 µg/mL
